Test results as given in article PMC10813319 (Biomedicines, 2024).
Where two headings read alike, the source gives them in different places. Each block holds one compound with its values, some of them ahead of it. Square brackets hold non-standard residues; d marks the D form. Peptide text beside a SMILES is read from it.

Columns and labels:
[1] = test system: pre-formed Aβd/t-induced cofilactin rods in Day 55 human neurons; details: AMD3100 30 nM for 24 h in the continued presence of Aβd/t; cited from earlier work
[2] = test system: pre-formed Aβd/t-induced cofilin-mRFP rods in E18 rat neurons
[3] = test system: Aβd/t-induced cofilactin rods in Day 55 human iPSC-derived glutamatergic neurons; test: cells; details: Neuron, read-out: EC50 for inhibition of Aβd/t-induced rods, human neurons
[4] = test system: Aβd/t-induced cofilactin rods in Day 55 human iPSC-derived glutamatergic neurons
[5] = test system: dual tropic gp120MN-induced cofilactin rods in Day 55 human neurons
[6] = test system: pre-formed Aβd/t-induced cofilactin rods in Day 55 human neurons
[7] = test system: IL-6-induced cofilactin rods in Day 55 human neurons
[8] = test system: Aβd/t-induced cofilactin rods in 6 DIV rat hippocampal neurons
[9] = test system: glutamate-induced cofilactin rods in 6 DIV rat hippocampal neurons
[10] = read-out: Human Neuron EC50, inhibition of Aβd/t-induced rods, Day 55 human neurons treated 24 h with Aβd/t plus peptide, Table 1

EC50 [3]: 2 to 3 nM
Compound: c1cc(CN2CCCNCCNCCCNCC2)ccc1CN1CCCNCCNCCCNCC1 [AMD3100]
Reversal of Aβd/t-induced rods in human neurons [1]: reversed | Reversal of rods induced by and in the continued presence of Aβd/t ([2]; AMD3100 50 nM, RAP-103 0.1 nM, live imaging over 2.5 h, n = 3): reversed rods

Compound: C[C@H](O)[C@@H](NC(=O)[C@@H](CO)NC(=O)[C@H](N)CO)C(=O)N[C@H](Cc1ccc(O)cc1)C(=O)N[C@H](CCCNC(=N)N)C(=O)O [Peptide 2] (H-[dS][dS][dT][dY][dR]-OH; N-terminus and C-terminus assumed)
EC50 [4, 10]: ~1 nM

Compound: C[C@H](O)[C@@H](NC(=O)[C@@H](Cc1ccc(O)cc1)NC(=O)[C@@H](CC(N)=O)NC(=O)[C@H](NC(=O)[C@H](N)CO)[C@H](C)O)C(=O)O [Peptide 3] (H-[dS][dT][dN][dY][dT]-OH)
EC50 [4, 10]: ~1.5 nM

Compound: CN[C@@H](C(=O)N[C@@H](C(=O)N[C@H](CC(N)=O)C(=O)N[C@H](Cc1ccc(O)cc1)C(=O)N[C@@H](C(=O)O)[C@H](C)O)[C@H](C)O)[C@H](C)O [Peptide 6]
EC50 [4, 10]: > 1 nM

Compound: C[C@H](O)[C@@H](N)C(=O)N[C@@H](C(=O)N[C@H](CC(N)=O)C(=O)N[C@H](Cc1ccc(O)cc1)C(=O)N[C@@H](C(=O)O)[C@H](C)O)[C@H](C)O [RAP-103]
Inhibition of gp120MN-induced rod formation [5]: completely inhibited | Time to 50% rod reversal in human neurons [6]: ~ 3 h | EC50 [7]: ~0.0001 nM | Adjusted time of 50% loss of rod area [2]: about 200 min | Extrapolated time to 50% decrease in rod size [2]: ~ 3 h | Rate of rod reversal relative to AMD3100 [2]: 2 fold | Reversal of rods induced by and in the continued presence of Aβd/t [2]: reversed rods

Compound: C[C@H](O)[C@@H](NC(=O)[C@@H](Cc1ccc(O)cc1)NC(=O)[C@@H](CC(N)=O)NC(=O)[C@H](NC(=O)[C@H](NC(=O)[C@H](NC(=O)[C@@H](CO)NC(=O)[C@@H](C)N)[C@H](C)O)[C@H](C)O)[C@H](C)O)C(N)=O [RAP-310]
Inhibition of Aβd/t-induced rods, rat neurons [8]: fully inhibited | Inhibition of glutamate-induced rods [9]: did not inhibit

Compound: Maraviroc [reference compound]
EC50 ([4]; read-out: EC50 for inhibition of Aβd/t-induced rods, human neurons, Day 55 human iPSC-derived neurons, <1 nM to 100 nM, approximate, estimated from semi-log plots (Figure S2C,D), n = 2): 8 to 9 nM
